PubChem BioAssay AID743422 (The Scripps Research Institute Molecular Screening Center, 2014)
pIC50: −log10 of the molar value. Active and inactive are the calls of the source. How the calls were made is not given here.

Biological target: Sphingosine 1-phosphate receptor 1 (Homo sapiens) (UniProt P21453)
Experiment: S1P1 receptor antagonism, potency – cell-based, luminescence, late-stage, counter-screen for S1PR3 antagonist project, dose response (AID 743422)
Details: Tango EDG-1-bla U2OS cells, beta-lactamase FRET reporter, 5 h S1P

Chain of Sphingosine 1-phosphate receptor 1 (Homo sapiens) (P21453 whole entry, looked up): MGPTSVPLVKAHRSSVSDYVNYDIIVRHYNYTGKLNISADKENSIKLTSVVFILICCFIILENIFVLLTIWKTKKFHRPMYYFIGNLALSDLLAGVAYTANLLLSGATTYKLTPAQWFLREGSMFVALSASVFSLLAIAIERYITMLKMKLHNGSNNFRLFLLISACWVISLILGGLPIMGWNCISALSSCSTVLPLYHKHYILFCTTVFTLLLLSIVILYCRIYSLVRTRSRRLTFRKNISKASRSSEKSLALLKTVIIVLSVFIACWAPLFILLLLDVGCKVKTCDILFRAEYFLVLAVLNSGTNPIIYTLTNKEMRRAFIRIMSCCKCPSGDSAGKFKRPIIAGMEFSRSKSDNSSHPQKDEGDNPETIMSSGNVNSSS

| IC50 | pIC50 | SMILES |
| --- | --- | --- |
| inactive |  | O=C(NC(c1ccc(Cl)cc1)c1nc(-c2ccccc2)no1)c1ccc(Cl)c(Cl)c1 (centres undefined) |
|  | 5.14 | O=C(NC(c1ccccc1)c1nc(-c2ccccc2)no1)c1ccc(Cl)cc1 (centres undefined) |
|  | 5.92 | O=C(NC(c1ccc(Cl)c(Cl)c1)c1nc(-c2ccccc2)no1)c1ccc(Cl)cc1 (centres undefined) |
| > 28.2 µM (inactive) |  | O=C(NC(Cc1ccccc1)c1nc(-c2ccccc2)no1)c1cccc(Cl)c1 (centres undefined) |
| > 28.2 µM (inactive) |  | O=C(NC(c1ccc(Br)cc1)c1nc(-c2ccccc2)no1)c1ccc(Cl)c(Cl)c1 (centres undefined) |
| > 28.2 µM (inactive) |  | COc1ccc(C(=O)NC(c2ccccc2)c2nc(-c3ccccc3)no2)cc1 (centres undefined) |
| > 28.2 µM (inactive) |  | O=C(NC(c1ccc(Cl)cc1)c1nc(-c2ccccn2)no1)c1cccc(Cl)c1 (centres undefined) |
|  | 5.80 | O=C(NC(c1ccccc1)c1nc(-c2ccccc2)no1)c1cccc(Cl)c1 (centres undefined) |
|  | 6.95 | O=C(NC(c1cccc(Cl)c1)c1nc(-c2ccccc2)no1)c1cc(Cl)cc(Cl)c1 (centres undefined) |
| > 28.2 µM (inactive) |  | O=C(NC(c1ccc(Cl)cc1)c1nc(-c2cccc(Cl)c2)no1)c1cccc(Cl)c1 (centres undefined) |
|  | 5.57 | O=C(c1cccc(Cl)c1)N(CCO)C(c1ccc(Cl)c(Cl)c1)c1nc(-c2ccccc2)no1 (centres undefined) |
| > 28.2 µM (inactive) |  | Cc1ccc(C(=O)NC(c2ccccc2)c2nc(-c3ccccc3)no2)cc1 (centres undefined) |
| > 28.2 µM (inactive) |  | CCc1ccc(C(NC(=O)c2cccc(Cl)c2)c2nc(-c3ccccc3)no2)cc1 (centres undefined) |
| > 28.2 µM (inactive) |  | O=C(NC(c1ccc(Cl)cc1)c1nc(-c2ccccc2)no1)c1cccc(Cl)c1 (centres undefined) |
